According to US8268814B2, “Substituted sulfonamide compounds” (Gruenenthal GmbH, priority 2008, dated 2012):

What was measured:
[1] = target: T1, B1R receptor of the rat (rB1R) (Rattus norvegicus, UniProt P97583); experiment: Functional FLIPR Ca2+ assay on the bradykinin 1 receptor, rat (rB1R CHO K1 cells); assay type: cell-based; details: test substance 10 μM; CHO K1 cells transfected with rat B1R gene; agonist Des-Arg9-bradykinin at EC80; % inhibition compared with maximum achievable inhibition; read-out: B1R antagonism, rat [10 μM] % inhibition
T1 construct: expressed in transfected cells; host or cells: CHO K1 cells (Chinese hamster ovary), stably transfected
T1 sequence (P97583 1-337): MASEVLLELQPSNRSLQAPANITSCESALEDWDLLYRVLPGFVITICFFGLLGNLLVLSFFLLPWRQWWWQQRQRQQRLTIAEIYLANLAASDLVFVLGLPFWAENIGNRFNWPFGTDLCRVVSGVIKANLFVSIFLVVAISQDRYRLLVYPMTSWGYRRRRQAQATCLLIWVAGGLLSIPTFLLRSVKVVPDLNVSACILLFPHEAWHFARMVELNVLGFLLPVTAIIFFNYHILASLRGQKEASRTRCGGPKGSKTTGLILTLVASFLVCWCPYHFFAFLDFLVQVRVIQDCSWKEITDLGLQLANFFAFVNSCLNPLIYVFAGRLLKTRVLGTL
How it was run: (§1)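 Stably transfected CHO K1 cells expressing human or rat B1R, Fluo-4-loaded, Ca2+ influx read by FLIPR (peak fluorescence). Compounds (10 μM for % activation) preincubated 10-20 min, then EC80 agonist added: Lys-Des-Arg9-bradykinin for human, Des-Arg9-bradykinin for rat; % inhibition versus maximal inhibition, IC50 from concentration series.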

[2] = target: T2, human B1R receptor (hB1R) (Homo sapiens, UniProt P46663); experiment: Functional FLIPR Ca2+ assay on the bradykinin 1 receptor, human (hB1R CHO K1 cells); assay type: cell-based; details: test substance 10 μM; CHO K1 cells transfected with human B1R gene; agonist Lys-Des-Arg9-bradykinin at EC80; % inhibition compared with maximum achievable inhibition; read-out: B1R antagonism, human (10 μM] % inhibition
T2 construct: expressed in transfected cells; host or cells: CHO K1 cells (Chinese hamster ovary), stably transfected
T2 sequence (P46663 1-353): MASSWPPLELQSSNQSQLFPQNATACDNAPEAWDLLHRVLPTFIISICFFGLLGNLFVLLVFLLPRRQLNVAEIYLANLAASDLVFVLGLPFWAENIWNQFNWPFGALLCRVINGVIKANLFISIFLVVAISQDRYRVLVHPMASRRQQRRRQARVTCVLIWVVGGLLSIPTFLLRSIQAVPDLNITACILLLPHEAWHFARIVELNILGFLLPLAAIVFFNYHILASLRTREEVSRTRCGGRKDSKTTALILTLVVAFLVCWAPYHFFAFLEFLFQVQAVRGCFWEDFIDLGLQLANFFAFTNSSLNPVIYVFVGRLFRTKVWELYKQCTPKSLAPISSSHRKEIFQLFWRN
How it was run: as §1

inhibition at 10 µM [1] [%] | inhibition at 10 µM [2] [%] | Structure (SMILES)
105 | 100 | COc1cc(C)c(S(=O)(=O)N2CCCCC2COCC(=O)N2CCc3onc(CN(C)C)c3C2)c(C)c1 (stereo not drawn) [Example 31, 1-(3-((dimethylamino)methyl)-6,7-dihydroisoxazolo[4,5-c]pyridin-5(4H)-yl)-2-((1-(4-methoxy-2,6-dimethylphenylsulfonyl)piperidin-2-yl)methoxy)ethanone]
104 | 99 | COc1cc(C)c(S(=O)(=O)N(C)CCOCC(=O)N2CCc3onc(CN(C)C)c3C2)c(C)c1 [Example 32, N-(2-(2-(3-((dimethylamino)methyl)-6,7-dihydroisoxazolo[4,5-c]pyridin-5(4H)-yl)-2-oxoethoxy)ethyl)-4-methoxy-N,2,6-trimethylbenzenesulfonamide]
35 | 40 | Cc1cc(S(=O)(=O)N2CCCCC2CCC(=O)N2CCc3sccc3C2c2ccc(Cl)nc2)c(C)cc1Cl (stereo not drawn) [Example 33, 3-(1-(4-chloro-2,5-dimethylphenylsulfonyl)piperidin-2-yl)-1-(4-(6-chloropyridin-3-yl)-6,7-dihydrothieno[3,2-c]pyridin-5(4H)-yl)propan-1-one]
57 | 29 | Cc1cc(S(=O)(=O)N2CCCCC2CCC(=O)N2CCc3sccc3C2c2cccc(C(F)(F)F)c2)c(C)cc1Cl (stereo not drawn) [Example 34, 3-(1-(4-chloro-2,5-dimethylphenylsulfonyl)piperidin-2-yl)-1-(4-(3-(trifluoromethyl)phenyl)-6,7-dihydrothieno[3,2-c]pyridin-5(4H)-yl)propan-1-one]
3 | 41 | Cc1cc(S(=O)(=O)N2CCCCC2CCC(=O)N2CCc3sccc3C2c2cccc(F)c2)c(C)cc1Cl (stereo not drawn) [Example 35, 3-(1-(4-chloro-2,5-dimethylphenylsulfonyl)piperidin-2-yl)-1-(4-(3-fluorophenyl)-6,7-dihydrothieno[3,2-c]pyridin-5(4H)-yl)propan-1-one]
100 | 100 | COc1cc(C)c(S(=O)(=O)N2CCCCC2COCC(=O)N2CCc3sccc3C2c2ccncc2)c(C)c1 (stereo not drawn) [Example 36, 2-((1-(4-methoxy-2,6-dimethylphenylsulfonyl)piperidin-2-yl)methoxy)-1-(4-(pyridin-4-yl)-6,7-dihydrothieno[3,2-c]pyridin-5(4H)-yl)ethanone]
97 | 28 | O=C(CC1CCCCN1S(=O)(=O)c1cccc(C(F)(F)F)c1)N1CCc2nc(-c3ccncc3)sc2C1 (stereo not drawn) [Example 37, 1-(2-(pyridin-4-yl)-6,7-dihydrothiazolo[5,4-c]pyridin-5(4H)-yl)-2-(1-(3-(trifluoromethyl)phenylsulfonyl)piperidin-2-yl)ethan-1-one]
97 | 99 | COc1cc(C)c(S(=O)(=O)N2CCCCC2COCC(=O)N2CCc3nc(Cc4ccncc4)sc3C2)c(C)c1 (stereo not drawn) [Example 38, 2-((1-(4-methoxy-2,6-dimethylphenylsulfonyl)piperidin-2-yl)methoxy)-1-(2-(pyridin-4-ylmethyl)-6,7-dihydrothiazolo[5,4-c]pyridin-5(4H)-yl)ethan-1-one]
99 | 100 | COc1cc(C)c(S(=O)(=O)N(C)CCOCC(=O)N2CCc3nc(Cc4ccncc4)sc3C2)c(C)c1 [Example 39, 4-methoxy-N,2,6-trimethyl-N-(2-(2-oxo-2-(2-(pyridin-4-ylmethyl)-6,7-dihydrothiazolo[5,4-c]pyridin-5(4H)-yl)ethoxy)ethyl)benzenesulfonamide]
90 | 51 | O=C(CC1CCCCN1S(=O)(=O)c1cccc(C(F)(F)F)c1)N1CCc2nc(Cc3ccncc3)sc2C1 (stereo not drawn) [Example 40, 1-(2-(pyridin-4-ylmethyl)-6,7-dihydrothiazolo[5,4-c]pyridin-5(4H)-yl)-2-(1-(3-(trifluoromethyl)phenylsulfonyl)piperidin-2-yl)ethan-1-one]
99 | 64 | COc1cc(C)c(S(=O)(=O)N2CCCCC2CCC(=O)N2CCc3nc(Cc4ccncc4)sc3C2)c(C)c1 (stereo not drawn) [Example 41, 3-(1-(4-methoxy-2,6-dimethylphenylsulfonyl)piperidin-2-yl)-1-(2-(pyridin-4-ylmethyl)-6,7-dihydrothiazolo[5,4-c]pyridin-5(4H)-yl)propan-1-one]
99 | 99 | COc1cc(C)c(S(=O)(=O)N2CCCCC2CCCC(=O)N2CCc3nc(Cc4ccncc4)sc3C2)c(C)c1 (stereo not drawn) [Example 43, 4-(1-(4-methoxy-2,6-dimethylphenylsulfonyl)piperidin-2-yl)-1-(2-(pyridin-4-ylmethyl)-6,7-dihydrothiazolo[5,4-c]pyridin-5(4H)-yl)butan-1-one]
59 | 83 | CN1CCN(Cc2cc3c(s2)CCN(C(=O)CC2CCCCN2S(=O)(=O)c2cccc(C(F)(F)F)c2)C3)CC1 (stereo not drawn) [Example 44, 1-(2-((4-methylpiperazin-1-yl)methyl)-6,7-dihydrothieno[3,2-c]pyridin-5(4H)-yl)-2-(1-(3-(trifluoromethyl)phenylsulfonyl)piperidin-2-yl)ethan-1-one]
99 | 98 | COc1cc(C)c(S(=O)(=O)N2CCCCC2CCC(=O)N2CCc3sc(CN4CCN(C)CC4)cc3C2)c(C)c1 (stereo not drawn) [Example 45, 3-(1-(4-methoxy-2,6-dimethylphenylsulfonyl)piperidin-2-yl)-1-(2-((4-methylpiperazin-1-yl)methyl)-6,7-dihydrothieno[3,2-c]pyridin-5(4H)-yl)propan-1-one]
101 | 100 | COc1cc(C)c(S(=O)(=O)N2CCCCC2CCCC(=O)N2CCc3sc(CN4CCN(C)CC4)cc3C2)c(C)c1 (stereo not drawn) [Example 47, 4-(1-(4-methoxy-2,6-dimethylphenylsulfonyl)piperidin-2-yl)-1-(2-((4-methylpiperazin-1-yl)methyl)-6,7-dihydrothieno[3,2-c]pyridin-5(4H)-yl)butan-1-one]
94 | 100 | COc1cc(C)c(S(=O)(=O)N2CCCCC2COCC(=O)N2CCc3nc(-c4ccncc4)sc3C2)c(C)c1 (stereo not drawn) [Example 48, 2-((1-(4-methoxy-2,6-dimethylphenylsulfonyl)piperidin-2-yl)methoxy)-1-(2-(pyridin-4-yl)-6,7-dihydrothiazolo[5,4-c]pyridin-5(4H)-yl)ethan-1-one]
95 | 99 | COc1cc(C)c(S(=O)(=O)N(C)CCOCC(=O)N2CCc3nc(-c4ccncc4)sc3C2)c(C)c1 [Example 49, 4-methoxy-N,2,6-trimethyl-N-(2-(2-oxo-2-(2-(pyridin-4-yl)-6,7-dihydrothiazolo[5,4-c]pyridin-5(4H)-yl)ethoxy)ethyl)benzenesulfonamide]
102 | 100 | COc1cc(C)c(S(=O)(=O)N2CCCCC2COCC(=O)N2CCc3sc(CN4CCN(C)CC4)cc3C2)c(C)c1 (stereo not drawn) [Example 50, 2-((1-(4-methoxy-2,6-dimethylphenylsulfonyl)piperidin-2-yl)methoxy)-1-(2-((4-methylpiperazin-1-yl)methyl)-6,7-dihydrothieno[3,2-c]pyridin-5(4H)-yl)ethan-1-one]
